# Assay results as given in patent publication US20260256792A1, “TREATMENT OF CHRONIC SPONTANEOUS URTICARIA BY ADMINISTERING (R)-2-[3-[4-AMINO-3-(2-FLUORO-4-PHENOXY-PHENYL)PYRAZOLO[3,4-D]PYRIMIDIN-1-YL]PIPERIDINE-1-CARBONYL]-4-METHYL-4-[4-(OXETAN-3-YL)PIPERAZIN-1-YL]PENT-2-ENENITRILE” (priority 2023, published 2026).
# Tested on: moderate-to-severe chronic spontaneous urticaria (CSU)
# Assay: Phase 2 CSU study: urticaria activity score over 7 days (UAS7)
# Assay type: in vivo, human
# Parameters: key to UAS7 Median / UAS7 Change from baseline Median / UAS7 change from baseline, Q1 / UAS7 change from baseline, Q3 / UAS7 change from baseline, Max / UAS7 Change from baseline LS Mean (SE): UAS7 points; daily UAS score ranges 0–6 points/day, over 7 days
# Source text: The study comprises a 12 week, randomized, double-blind, placebo-controlled, multi-center, dose-ranging efficacy and safety phase, followed by a 40 week open label extension (OLE) phase (see FIG. 1). The study consists of three phases and an optional OLE phase. […] Clinically, CSU is characterized by the spontaneous and recurrent appearance of pruritic hives. The proposed primary endpoints were the UAS7 at Week 12 in EU and EU reference countries and the ISS7 in the US. Regardless of where a participant was from, all assessments were the same. The UAS7 score is a composite score containing both the HSS7 and the ISS7. This allowed a global assessment of the two key components of urticaria: hives and itch. […] The UAS is a validated PRO measure. […] The daily UAS scores range from 0 to 6 point/day. […] Patients were to complete the UAS using the e-diary. […] The following secondary endpoints were to be analyzed using the same approach as for the primary endpoint: • Change from baseline in UAS7 at Week 4 • Change from baseline in UAS7 at Week 12 (for US and US reference countries) • Change from baseline in ISS7 at Week 12 (except US and US reference countries) • Change from baseline in HSS7 at Week 12 The following responder secondary endpoints were to be analyzed using the Cochran-Mantel-Haenszel test adjusted by region: • Proportion of participants with UAS7<6 at Week 12 • Proportion of participants with UAS7=0 at Week 12 Participants who received selected prohibited medications and/or rescue medications were to be considered as non-responders for time points after the medication usage. For other participants, all available data including those collected during the off-treatment period were to be used to determine the responder/non-responder status. Missing data were to be considered as non-responders.
# [1] = Week 2, 400 mg TID, ITT population
# [2] = Week 2, 400 mg TID, Omalizumab-Naïve
# [3] = Week 2, 400 mg TID, Prior Omalizumab Use
# [4] = Week 2, 400 mg TID, omalizumab-naive participants
# [5] = Week 3, 400 mg BID, ITT population
# [6] = Week 3, 400 mg BID, Omalizumab-Naïve
# [7] = Week 3, 400 mg BID, Prior Omalizumab Use
# [8] = Week 3, 400 mg BID, omalizumab-naive participants
# [9] = Week 3, 400 mg QPM, ITT population
# [10] = Week 3, 400 mg QPM, Omalizumab-Naïve
# [11] = Week 3, 400 mg QPM, Prior Omalizumab Use
# [12] = Week 3, 400 mg QPM, omalizumab-naive participants
# [13] = Week 3, 400 mg TID, ITT population
# [14] = Week 3, 400 mg TID, Omalizumab-Naïve
compound,measurement,setting,value
"CC(C)(C=C(C#N)C(=O)N1CCC[C@@H](n2nc(-c3ccc(Oc4ccccc4)cc3F)c3c(N)ncnc32)C1)N1CCN(C2COC2)CC1 [rilzabrutinib, (R)-2-[3-[4-amino-3-(2-fluoro-4-phenoxy-phenyl)pyrazolo[3,4-d]pyrimidin-1-yl]piperidine-1-carbonyl]-4-methyl-4-[4-(oxetan-3-yl)piperazin-1-yl]pent-2-enenitrile]","OR for rilzabrutinib vs. placebo, UAS7 reduction of 10 points or more",[1],5.982
same,"RRD (%) for rilzabrutinib vs. placebo, UAS7 reduction of 10 points or more",[1],40.6 %
same,"Responder, UAS7 reduction from baseline of 10 points or more",[1],28 (68.3) n (%)
same,UAS7 Change from baseline Mean (SD),[2],−13.69 (11.66)
same,UAS7 Change from baseline Median,[2],−11.00
same,UAS7 Mean (SD),[2],15.65 (10.66)
same,UAS7 Median,[2],14.00
same,UAS7 Percent change from baseline Mean (SD),[2],−45.70 (36.18) %
same,UAS7 Percent change from baseline Median,[2],−46.67%
same,UAS7 Change from baseline Mean (SD),[3],−24.69 (11.86)
same,UAS7 Change from baseline Median,[3],−22.50
same,UAS7 Mean (SD),[3],8.33 (9.77)
same,UAS7 Median,[3],5.50
same,UAS7 Percent change from baseline Mean (SD),[3],−75.38 (23.12) %
same,UAS7 Percent change from baseline Median,[3],−73.96%
same,"Non-responder, UAS7 reduction from baseline of 10 points or more",[4],13 (37.1) n (%)
same,"OR for rilzabrutinib vs. placebo, UAS7 reduction of 10 points or more",[4],5.505
same,"RRD (%) for rilzabrutinib vs. placebo, UAS7 reduction of 10 points or more",[4],39.0 %
same,"Responder, UAS7 reduction from baseline of 10 points or more",[4],22 (62.9) n (%)
same,"Non-responder, UAS7 reduction from baseline of 10 points or more",[5],20 (48.8) n (%)
same,"OR for rilzabrutinib vs. placebo, UAS7 reduction of 10 points or more",[5],2.109
same,"RRD (%) for rilzabrutinib vs. placebo, UAS7 reduction of 10 points or more",[5],18.0 %
same,"Responder, UAS7 reduction from baseline of 10 points or more",[5],21 (51.2) n (%)
same,UAS7 Change from baseline Mean (SD),[6],−12.02 (10.63)
same,UAS7 Change from baseline Median,[6],−9.00
same,UAS7 Mean (SD),[6],17.71 (11.91)
same,UAS7 Median,[6],16.80
same,UAS7 Percent change from baseline Mean (SD),[6],−41.11 (35.05) %
same,UAS7 Percent change from baseline Median,[6],−32.14%
same,UAS7 Change from baseline Mean (SD),[7],−15.81 (16.39)
same,UAS7 Change from baseline Median,[7],−15.00
same,UAS7 Mean (SD),[7],17.19 (13.86)
same,UAS7 Median,[7],18.58
same,UAS7 Percent change from baseline Mean (SD),[7],−44.47 (44.78) %
same,UAS7 Percent change from baseline Median,[7],−41.73%
same,"Non-responder, UAS7 reduction from baseline of 10 points or more",[8],18 (51.4) n (%)
same,"OR for rilzabrutinib vs. placebo, UAS7 reduction of 10 points or more",[8],2.057
same,"RRD (%) for rilzabrutinib vs. placebo, UAS7 reduction of 10 points or more",[8],17.2 %
same,"Responder, UAS7 reduction from baseline of 10 points or more",[8],17 (48.6) n (%)
same,"Non-responder, UAS7 reduction from baseline of 10 points or more",[9],22 (57.9) n (%)
same,"OR for rilzabrutinib vs. placebo, UAS7 reduction of 10 points or more",[9],1.663
same,"RRD (%) for rilzabrutinib vs. placebo, UAS7 reduction of 10 points or more",[9],11.7 %
same,"Responder, UAS7 reduction from baseline of 10 points or more",[9],16 (42.1) n (%)
same,UAS7 Change from baseline Mean (SD),[10],−9.10 (8.78)
same,UAS7 Change from baseline Median,[10],−7.00
same,UAS7 Mean (SD),[10],22.01 (9.00)
same,UAS7 Median,[10],22.00
same,UAS7 Percent change from baseline Mean (SD),[10],−28.09 (25.63) %
same,UAS7 Percent change from baseline Median,[10],−26.67%
same,UAS7 Change from baseline Mean (SD),[11],−22.00 (NC)
same,UAS7 Change from baseline Median,[11],−22.00
same,UAS7 Mean (SD),[11],19.00 (NC)
same,UAS7 Median,[11],19.00
same,UAS7 Percent change from baseline Mean (SD),[11],−53.66 (NC) %
same,UAS7 Percent change from baseline Median,[11],−53.66%
same,"Non-responder, UAS7 reduction from baseline of 10 points or more",[12],22 (59.5) n (%)
same,"OR for rilzabrutinib vs. placebo, UAS7 reduction of 10 points or more",[12],1.665
same,"RRD (%) for rilzabrutinib vs. placebo, UAS7 reduction of 10 points or more",[12],11.4 %
same,"Responder, UAS7 reduction from baseline of 10 points or more",[12],15 (40.5) n (%)
same,"Non-responder, UAS7 reduction from baseline of 10 points or more",[13],14 (34.1) n (%)
same,"OR for rilzabrutinib vs. placebo, UAS7 reduction of 10 points or more",[13],3.444
same,"RRD (%) for rilzabrutinib vs. placebo, UAS7 reduction of 10 points or more",[13],31.4 %
same,"Responder, UAS7 reduction from baseline of 10 points or more",[13],27 (65.9) n (%)
same,UAS7 Change from baseline Mean (SD),[14],−13.97 (12.14)
same,UAS7 Change from baseline Median,[14],−14.00
same,UAS7 Mean (SD),[14],15.37 (9.87)
same,UAS7 Median,[14],14.00
